Patent US20050080570A1, “Predicting probabilities of achieving a desired minimum trough level for an anti-infective agent” (priority 2003, published 2005)
Read-outs that look alike come from different tables or passages of the source.

What was measured:
[1] = 100% human serum; fourth study; cited from earlier work
[2] = average value across the studies

Protein-binding correction factor, Average [2] | Protein-binding correction factor, Average (human) | SMILES | Protein-binding correction factor, 100% HS [1]
1.3 | – | Cc1ccnc2c1NC(=O)c1cccnc1N2C1CC1 [NVP, Nevirapine] | 1.2
– | 23.4 | CC(C)(C)NC(=O)[C@@H]1C[C@@H]2CCCC[C@@H]2CN1C[C@@H](O)[C@H](Cc1ccccc1)NC(=O)[C@H](CC(N)=O)NC(=O)c1ccc2ccccc2n1 [SQV, Saquinavir] | –
18.4 | – | O=C1Nc2ccc(Cl)cc2[C@@](C#CC2CC2)(C(F)(F)F)O1 [EFV, Efavirenz] | 25.5
46.1 | – | Cc1c(O)cccc1C(=O)N[C@@H](CSc1ccccc1)[C@H](O)CN1C[C@H]2CCCC[C@H]2C[C@H]1C(=O)NC(C)(C)C [NFV, Nelfinavir] | 90.6
